Patent US9877980B2, “Method and composition for treatment or prevention of type 2 diabetes and hyperlipidemia” (Chun-Ching Shih, priority 2016, dated 2018)

Columns and labels:
AMPK = test: Western blotting of phospho-AMPK/total AMPK in skeletal muscle and liver; assay type: in vivo; conditions: HFD mice, 4 weeks, vs HF group
Experimental: (§1) The following experiment was performed and approved by the guidelines of the Institutional Animal Care and Use Committee of Central Taiwan University of Science and Technology. The 4-week old male C57BL/6J mice (total amount n=63) were purchased from the National Laboratory Animal Breeding and Research Center (Taipei, Taiwan). After acclimatization for one week, all of the mice were divided randomly into the control (CON) group and the high-fat diet (HFD) group. For the following 12 weeks, the CON group (n=9) was kept on a low-fat diet (Diet 12450B, Research Diets, Inc., New Brunswick, N.J., USA), while the HFD group (n=54) was exposed to a high-fat diet (Diet 12451, Research Diets, New Brunswick, N.J., USA). The low-fat diet was composed of protein 20%, carbohydrate 70% and fat 10%, whereas the high-fat diet was composed of protein 20%, carbohydrate 35%, and fat 45% (of total energy, % kcal). After HFD exposure for 8 weeks, the HFD group was further randomly subdivided into 6 groups (n=9 per group) to receive different treatments by oral gavage once daily for four weeks and on HFD. […] The HF+B1, HF+B2, and […] are collectively termed BB-treated HFD groups in the following examples. The CON mice were administered vehicle. After dosing for 4 weeks, the mice were given no food at night and sacrificed after 12 h of fasting on the next day. All of the individual tissues were collected and weighed, and portions were instantly frozen using liquid nitrogen and kept at −80° C. for subsequent target gene analysis. Blood samples (0.8 mL) were collected for analysis of blood parameters.
Protein extractions and immunoblots for the determination of phospho-AMPK (Thr^172) and phospho-Akt (Ser^473) proteins in skeletal muscle and liver tissue of mice (n=9) were carried out. About 0.1 g of liver tissue and skeletal muscle was used for the homogenate samples. Samples were powdered under liquid nitrogen and homogenized for 20 seconds in 500 μL buffer containing 20 mM Tris-HCL1 (pH 7.4 at 4° C.), 2% SDS, 5 mM EDTA, 5 mM EGTA, 1 mM DTT, 100 mM NaF, 2 mM sodium vanadate, 0.5 mM phenylmethylsulfonyl fluoride, 10 μg/mL leupeptin, and […] pepstatin. The protein concentration in supernatant was determined with a BCA protein assay kit (Thermo Scientific, Rockford, Ill., USA). 20 μg of proteins were separated by electrophoresis on a polyacrylamide gel 12% (SDS-PAGE) and transferred to a nitrocellulose membrane. The membranes were blocked with 5% slim milk in Tris-buffered saline (TBS)(Amersham BioSciences, Uppsala, Sweden) containing 0.05% Tween-20 (Bio Rad, CA, USA) and incubated overnight at 4° C. with anti-phospho-AMPK (Abcam Inc., Cambridge, Mass., USA) and anti-phospho-Akt (Cell signaling Technology, Inc., Danvers, Mass., USA) rabbit polyclonal antibodies at 1:200 dilution. Subsequently, the membranes were washed three times with TBS containing 0.05% Tween-20 and incubated with secondary antibody anti-rabbit (1:1000) (Jackson ImmunoResearch Laboratories, Inc., PA, USA) for 1 hour. Immunoreactive bands were detected with ECL reagent kit (GE Healthcare BioSciences, Buckinghamshire, UK). The intensity of blotting was analyzed using Alpha Easy FC software (Alpha Innotech Corporation, Randburg, South Africa). Structural proteins GAPDH (Santa Cruz Biotechnology, CA, USA) in the samples were used as the loading control.

[1] = test system: epididymal adipocyte of HFD mice; test: Histology of epididymal white adipose tissue (adipocyte hypertrophy); assay type: in vivo; conditions: 4 weeks, three measurements
Experimental: as §1
Small pieces of epididymal white adipose tissue and liver tissue were fixed with formalin (200 g/kg) neutral buffered solution and embedded in paraffin. Sections of 8 μm […] were cut and stained with hematoxylin and eosin. For microscopic examination, a microscope (Leica, DM2500) was used, and the images were taken using a Leica Digital Camera (DFC-425-C).
Adipocyte hypertrophy, the pathological enlargement of adipocytes, is often found in subjects with type 2 diabetes and hyperlipidemia. To verify the therapeutic effect of the compound of formula I on adipocyte hypertrophy, morphology of the EWAT for the CON group and the BB-treated HFD groups was examined. Micrographs of the EWAT sections for each group were analyzed to determine the mean area of an epididymal adipocyte using the software ImageJ.

Question: For `OCC1O[C@@H](O[C@@H]2Cc3c(O)cc(O)cc3O[C@@H]2c2ccc(O)c(O)c2)C(O)C(O)[C@@H]1O` (single isomer, unassigned; (-)) [compound of formula I, (−)-epicatechin-3-O-β-D-allopyranoside], which “expression level of phospho-AMPK/total AMPK” value (AMPK; liver, 10 mg/kg/day oral gavage) is on record?
Answer: enhanced

Question: What about the “expression level of phospho-AMPK/total AMPK” value (AMPK; liver, 20 mg/kg/day oral gavage) of the same compound?
Answer: enhanced

Question: And the “expression level of phospho-AMPK/total AMPK” value (AMPK; liver, 40 mg/kg/day oral gavage)?
Answer: enhanced

Question: What about the “expression level of phospho-AMPK/total AMPK” value (AMPK; skeletal muscle, 10 mg/kg/day oral gavage) of the same compound?
Answer: enhanced

Question: And the “expression level of phospho-AMPK/total AMPK” value (AMPK; skeletal muscle, 20 mg/kg/day oral gavage)?
Answer: enhanced

Question: And the “expression level of phospho-AMPK/total AMPK” value (AMPK; skeletal muscle, 40 mg/kg/day oral gavage)?
Answer: enhanced

Question: What about the “mean area of an epididymal adipocyte” value ([1]; 10 mg/kg/day oral gavage) of the same compound?
Answer: 6882.8±102.2 μm^2

Question: What about the “mean area of an epididymal adipocyte” value ([1]; 20 mg/kg/day oral gavage) of the same compound?
Answer: 6475.5±102.6 μm^2

Question: What about the “mean area of an epididymal adipocyte” value ([1]; 40 mg/kg/day oral gavage) of the same compound?
Answer: 6192.7±100.7 μm^2
